Data from patent US10508088B2, “Methods using HDAC11 inhibitors” (FORMA Therapeutics, Inc., priority 2016, dated 2019).

Assays:
[1] = molecular target: Full length human recombinant HDAC11 (Homo sapiens (Human), UniProt Q96DB2); assay: Enzymatic HDAC11 assay, electrophoretic mobility shift; type: biochemical; settings: substrate FAM-RHKK(tri-fluor-Ac)-NH2, read-out: HDAC11 IC50 Range
Outline: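 Baculovirus-expressed enzyme (10 nM) with 2 μM FAM-RHKK(tri-fluor-Ac)-NH2 in 100 mM HEPES pH 7.5, 25 mM KCl, 0.1% BSA, 0.01% Triton X-100, 1% DMSO at 25 °C. Substrate and product separated by microfluidic electrophoresis; inhibition from product/(substrate+product) ratio. IC50 by 4-parameter fit over 12 concentrations.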

[2] = tested on: SET-2 cells; assay: Cell proliferation assay (CCK8); type: cell-based; settings: SET-2 (FIG. 4 legend)
Method: (§1) This example describes inhibition of in vitro cell proliferation with exemplary HDAC11 inhibitors. The effects of selective HDAC11 inhibitors on cell proliferation were measured in cell lines containing the MPN-associated mutations MPL W515L (Ba/F3 MPL W515L) and JAK2 V617F (Ba/F3 JAK2 V617F, HEL 92.1.7, SET-2). HEL 92.1.7 and SET-2 cells were purchased from the ATCC and DSMZ, respectively. Ba/F3 cells overexpressing either MPLW515L or JAK2V617F, which were cytokine independent, were generated by transforming Ba/F3 cells with retroviruses overexpressing either MPL W515L or JAK2V617F. For survival assays, cells were seeded in 96-well plates at the density of 0.1 million/ml with addition of indicated compounds and incubated at 37° C. for 48 h. CCK8 solution (Dojindo, Rockville, Md.) was added and absorbance at 450 nm was measured after 3 hours of incubation. Readings were normalized to dimethylsulfoxide (DMSO)-treated wells.

[3] = tested on: HEL 92.1.7 cells; assay: Cell proliferation assay (CCK8); type: cell-based; settings: HEL 92.1.7, 48 h
Method: as §1

Full length human recombinant HDAC11, sequence (Q96DB2 whole entry): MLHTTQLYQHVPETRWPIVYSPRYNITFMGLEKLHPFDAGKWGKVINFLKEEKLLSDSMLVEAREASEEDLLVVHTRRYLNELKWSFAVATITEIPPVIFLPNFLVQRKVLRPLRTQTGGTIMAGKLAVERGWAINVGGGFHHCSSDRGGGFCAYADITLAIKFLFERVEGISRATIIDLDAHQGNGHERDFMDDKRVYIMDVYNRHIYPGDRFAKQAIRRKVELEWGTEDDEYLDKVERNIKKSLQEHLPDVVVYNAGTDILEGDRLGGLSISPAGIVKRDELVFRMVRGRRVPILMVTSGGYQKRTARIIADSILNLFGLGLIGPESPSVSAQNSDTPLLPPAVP

Row | SMILES | IC50 [1] [µM] | growth of SET-2 cell line [2] | growth of the HEL 92.1.7 cell line [3]
1 | O=C(NO)c1cccc2c1CCC1(CCN(c3cccc(C(F)(F)F)c3)C1=O)C2 (stereo not shown) [II-89, N-hydroxy-2′-oxo-1′-(3-(trifluoromethyl)phenyl)-3,4-dihydro-1H-spiro[naphthalene-2,3′-pyrrolidine]-5-carboxamide] | 0.5 to 1 | – | –
2 | O=C(NO)c1cccc2c1CCC1(CCN(c3ccccc3C(F)(F)F)C1=O)C2 (stereo not shown) [II-90, N-hydroxy-2′-oxo-1′-(2-(trifluoromethyl)phenyl)-3,4-dihydro-1H-spiro[naphthalene-2,3′-pyrrolidine]-5-carboxamide] | > 1 | – | –
3 | N#CC[C@H](C1CCCC1)n1cc(-c2ncnc3[nH]ccc23)cn1 [ruxolitinib, reference compound] | – | inhibited | inhibited

Second part, led by results:

Row | IC50 [1] [µM] | SMILES | growth of SET-2 cell line [2] | growth of the HEL 92.1.7 cell line [3]
4 | > 1 | CC(=O)N1CCC2(CCc3c(cccc3C(=O)NO)O2)CC1 [II-91, 1′-acetyl-N-hydroxyspiro[chromane-2,4′-piperidine]-5-carboxamide] | – | –
5 | > 1 | O=C(NO)c1cccc2c1CCC1(CCN(c3ccccc3)CC1)O2 [II-92, N-hydroxy-1′-phenylspiro[chromane-2,4′-piperidine]-5-carboxamide] | – | –
6 | > 1 | O=C(NO)c1cccc2c1CCC1(CCN(c3ccc(F)cc3)CC1)O2 [II-93, 1′-(4-fluorophenyl)-N-hydroxyspiro[chromane-2,4′-piperidine]-5-carboxamide] | – | –
